Test results reported in paper PMC10787763, “Two-substrate enzyme engineering using small libraries that combine the substrate preferences from two different variant lineages” (Scientific Reports, 2024).

Target: T1, E. coli transketolase (TK), 6M variant scaffold (Escherichia coli, UniProt P27302, H100L/H192P/A282P/I365L/D469T/G506A/R520Q, form not given)
T1 construct: gene tktA; full-length, C-terminal His6 tag, expressed in E. coli from lab plasmid (pQR791 / pQR729), Ni-NTA purified; holo-TK with ThDP and Mg2+; non-natural residue by amber suppression in TK-5C
T1 sequence (P27302 whole entry H100L/H192P/A282P/I365L/D469T/G506A/R520Q, form open): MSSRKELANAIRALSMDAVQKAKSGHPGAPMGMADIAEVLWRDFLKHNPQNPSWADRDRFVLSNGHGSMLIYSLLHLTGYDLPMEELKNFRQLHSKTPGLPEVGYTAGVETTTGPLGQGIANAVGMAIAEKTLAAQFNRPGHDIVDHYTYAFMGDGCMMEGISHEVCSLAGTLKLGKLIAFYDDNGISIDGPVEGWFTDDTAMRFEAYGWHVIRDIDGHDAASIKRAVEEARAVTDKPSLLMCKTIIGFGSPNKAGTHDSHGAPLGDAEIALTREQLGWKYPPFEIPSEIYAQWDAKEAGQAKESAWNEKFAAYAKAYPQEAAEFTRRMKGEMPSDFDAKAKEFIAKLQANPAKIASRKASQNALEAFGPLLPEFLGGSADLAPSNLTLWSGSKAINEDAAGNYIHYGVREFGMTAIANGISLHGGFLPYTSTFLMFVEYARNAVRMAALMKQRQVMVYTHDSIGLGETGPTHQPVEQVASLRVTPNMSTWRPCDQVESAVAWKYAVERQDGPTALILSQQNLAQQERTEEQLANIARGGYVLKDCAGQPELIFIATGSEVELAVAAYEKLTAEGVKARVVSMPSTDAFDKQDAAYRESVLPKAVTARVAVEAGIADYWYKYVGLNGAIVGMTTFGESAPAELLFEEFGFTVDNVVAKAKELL
Assay: initial-rate kinetics by RP-HPLC, Michaelis-Menten fit
Assay type: biochemical
Details: TK-5C; residue 385 is non-natural p-cyano-L-phenylalanine; acceptor substrate varied, 50 mM pyruvate as donor, 2.4 mM ThDP, 9 mM MgCl2, 50 mM Tris-HCl pH 7.0, 21 °C; error is SEM
Description: initial-rate kinetics by RP-HPLC, Michaelis-Menten fit on E. coli transketolase (TK), 6M variant scaffold

## O=Cc1cccc(C(=O)O)c1 [3-FBA, 3-formylbenzoic acid]
  Km: 95 mM
